Data from patent US20020173468A1, “MODIFIED CYTOSTATIC AGENTS” (priority 1996, published 2002).
pIC50: −log10 of the molar value. Where a name gives a salt, the structure may show the parent alone.

Tests used:
Type in all cases: cell-based
[1] = tested on: SW 480 human colonic tumour cell line; assay: Growth inhibition test (MTT) for cytotoxic properties, SW 480; settings: SW 480 cells
Procedure: (§1) 1. Growth Inhibition Test for the Determination of Cytotoxic Properties
(§2) They were then trypsinized and taken up in RPMI plus 10% FCS to give a cell count of 50,000 cells/ml. 100 μl of cell suspension/well were added to a 96 microwell plate and incubated for 1 day at 37° C. in a CO2 incubator. A further 100 μl of RPMI medium and 1 μl of DMSO were then added with the test substances. The growth was checked after day 3 and day 6. To do this, 40 μl of MTT solution (3-(4,5-dimethylthiazol-2-yl)-2,5-diphenyl-tetrazolin bromide) were added to each microwell at a starting concentration of 5 mg/ml of H2O. Incubation was carried out at 37° C. for 5 hours in the CO2 incubator. The medium was then aspirated and 100 μl of i-propanol/well were added. After shaking for 30 min with 100 μl of H2O, the extinction was measured at 540 nm using a Titertek Multiskan MCC/340 (flow).
(§3) The cytotoxic action is indicated in Table 1 as an IC50 value in each case for the SW 480 and HT 29 and B16F10 cell lines: […]

[2] = tested on: HT 29 human colonic tumour cell line; assay: Growth inhibition test (MTT) for cytotoxic properties, HT 29; settings: HT 29 cells
Procedure: as §1, §2, §3

[3] = tested on: B16F10 mouse melanoma cell line; assay: Growth inhibition test (MTT) for cytotoxic properties, B16F10; settings: B16F10 cells
Procedure: as §1, §2, §3

| SMILES | pIC50 [1] | pIC50 [2] | pIC50 [3] |
| --- | --- | --- | --- |
| CC(NC(=O)C(CO)NC(=S)Nc1ccc(O)cc1)C(=O)Nc1ccc2c(c1)CN1C(=O)c3ccccc3C1=N2 [1.5), N-[N-(4-Hydroxy-phenylamino-thiocarbonyl)-seryl-D-alanyl]-batracylin] | 3.60 | 3.40 | – |
| CCC1(O)C(=O)OCc2c1cc1n(c2=O)Cc2c-1nc1ccccc1c2COC(=O)[C@@H](NC(=O)[C@H](CCCCN)NC(=S)Nc1ccc(O)cc1)C(C)C (stereo partly drawn) [7), 7-[N^α-(4-Hydroxy-phenylamino-thiocarbonyl)-lysyl-valyloxymethyl]-camptothecin, hydrochloride] | 7.22 | 7.10 | 6.00 |
| CN(C(=S)NC(CCCCN)C(=O)NC1C=CCC2CN(c3c(F)cc4c(=O)c(C(=O)O)cn(C5CC5)c4c3Cl)CC21)c1ccccc1 (racemic) [2.10), N-[N^α-(Phenyl-methyl-amino-thiocarbonyl)-lysyl]-quinolone-a] | 5.70 | 5.70 | 6.40 |
| CC(NC(=O)C(CCCCN)NC(=S)Nc1ccc(O)cc1)C(=O)NC1C=CCC2CN(c3c(F)cc4c(=O)c(C(=O)O)cn(C5CC5)c4c3Cl)CC21 (racemic) [2.11), N-[N^α-(4-Hydroxy-phenylamino-thiocarbonyl)-lysyl-D-alanyl]-quinolone-a] | 4.22 | 3.82 | 4.52 |
| NC(CCCCNC(=S)Nc1ccc(O)cc1)C(=O)Nc1ccc2c(c1)CN1C(=O)c3ccccc3C1=N2 (centres unmarked) [1.3), N-[N^ε-(4-Hydroxy-phenylamino-thiocarbonyl)-lysyl]-batracylin] | 4.35 | 4.15 | – |
| NCCC(NC(=S)Nc1ccc(O)cc1)C(=O)NC1C=CCC2CN(c3c(F)cc4c(=O)c(C(=O)O)cn(C5CC5)c4c3Cl)CC21 (racemic) [2.3), N-[N^α-(4-Hydroxy-phenylamino-thiocarbonyl)-α,γ-diaminobutyryl]-quinolone-a, hydrochloride] | 6.05 | 6.15 | 6.70 |
| CC[C@@]1(OC(=O)C(NC(=O)C(CCCCN)NC(=S)Nc2ccc(Cl)cc2)C(C)C)C(=O)OCc2c1cc1n(c2=O)Cc2cc3ccccc3nc2-1 (stereo partly drawn) [4.6), 20-O-[N^α-(4-Chloro-phenylamino-thiocarbonyl)-lysyl-valyl]-camptothecin, hydrochloride] | 6.70 | 6.82 | 6.30 |
| CCC1(OC(=O)C(NC(=O)C(CCCCN)NC(=S)N(C)c2ccccc2)C(C)C)C(=O)OCc2c1cc1n(c2=O)Cc2cc3ccccc3nc2-1 (stereo not drawn) [4.8), 20-O-[N^α-(Phenyl-methyl-amino-thiocarbonyl)-lysyl-valyl]-camptothecin, hydrochloride] | 6.52 | 6.82 | 6.10 |
| CCC1(OC(=O)C(CC(C)C)NC(=O)C(CCCCN)NC(=S)Nc2ccc(O)cc2)C(=O)OCc2c1cc1n(c2=O)Cc2cc3ccccc3nc2-1 (stereo not drawn) [4.20), 20-O-[N^α-(4-Hydroxy-phenylamino-thiocarbonyl)-lysyl-leucyl]-camptothecin, hydrochloride] | 7.15 | 7.22 | 6.52 |
| CCC1(OC(=O)C(NC(=O)C(CCCCN)NC(=S)Nc2ccc(N)cc2)C(C)C)C(=O)OCc2c1cc1n(c2=O)Cc2cc3ccccc3nc2-1 (stereo not drawn) [4.18), 20-O-[N^α-(4-Amino-phenylamino-thiocarbonyl)-lysyl-valyl]-camptothecin, hydrochloride] | 6.52 | 6.92 | 6.40 |
| CCC1(OC(=O)C(Cc2ccccc2)NC(=O)C(CCCCN)NC(=S)Nc2ccc(O)cc2)C(=O)OCc2c1cc1n(c2=O)Cc2cc3ccccc3nc2-1 (stereo not drawn) [4.3), 20-O-[N^α-(4-Hydroxy-phenylamino-thiocarbonyl)-lysyl-phenyl-alanyl]-camptothecin] | 7.70 | 7.70 | 7.00 |
| CCC1(OC(=O)C(NC(=O)C(CCCCN)NC(=S)Nc2cccc([N+](=O)[O-])c2)C(C)C)C(=O)OCc2c1cc1n(c2=O)Cc2cc3ccccc3nc2-1 (stereo not drawn) [4.17), 20-O-[N^α-(3-Nitro-phenylamino-thiocarbonyl)-lysyl-valyl]-camptothecin, hydrochloride] | 6.52 | 6.77 | 6.10 |
| CC[C@@]1(OC(=O)[C@@H](NC(=O)[C@H](CCCCN)NC(=S)Nc2ccccc2)C(C)C)C(=O)OCc2c1cc1n(c2=O)Cc2cc3ccccc3nc2-1 [4.7), 20-O-[N^α-(Phenylamino-thiocarbonyl)-lysyl-valyl]-camptothecin, hydrochloride] | 7.00 | 7.22 | 6.52 |
| CCC1(OC(=O)[C@H](CC(C)C)NC(=O)[C@H](CCCCN)NC(=S)Nc2ccc(O)cc2)C(=O)OCc2c1cc1n(c2=O)Cc2cc3cc4c(cc3nc2-1)OCO4 (stereo partly drawn) [6), 10,11-(Methylenedioxy)-20-O-[N^α-(4-hydroxy-phenylaminothio-carbonyl)-lysyl-leucyl]-camptothecin, hydrochloride] | 8.30 | 8.52 | 7.82 |
| CCc1c2c(nc3ccccc13)-c1cc3c(c(=O)n1C2)COC(=O)C3(CC)OC(=O)C(C)NC(=O)C(CCCCNC(=S)Nc1ccc(O)cc1)NC(=S)Nc1ccc(O)cc1 (stereo not drawn) [5.1), 7-Ethyl-20-O-[N^α,N^ε-bis-(4-hydroxy-phenylamino-thiocarbonyl)-lysyl-alanyl]-camptothecin] | 7.60 | 7.70 | 7.30 |
| NCCCC[C@H](NC(=S)Nc1ccc(O)cc1)C(=O)Nc1ccc2c(c1)CN1C(=O)c3ccccc3C1=N2 [1.2), N-[N^α-(4-Hydroxy-phenylamino-thiocarbonyl)-lysyl]-batracylin] | 4.60 | 4.40 | – |
| CCC1(OC(=O)[C@@H](C)NC(=O)C(CCCCNC(=S)Nc2ccc(O)cc2)NC(=S)Nc2ccc(O)cc2)C(=O)OCc2c1cc1n(c2=O)Cc2cc3ccccc3nc2-1 (stereo partly drawn) [4.10), 20-O-[N^α,N^ε-bis-(4-Hydroxy-phenylamino-thiocarbonyl)-lysyl-D-alanyl]-camptothecin] | 7.70 | 8.00 | 6.70 |
| CCC1(OC(=O)C(CC(C)C)NC(=O)C(CCCCN)NC(=S)Nc2ccc(O)cc2)C(=O)OCc2c1cc1n(c2=O)Cc2cc3ccccc3nc2-1 (stereo not drawn) [4.2), 20-O-[N^α-(4-Hydroxy-phenylamino-thiocarbonyl)-lysyl-leucyl]-camptothecin, hydrochloride] | 7.15 | 7.22 | 6.52 |
| CC[C@@]1(OC(=O)C(NC(=O)C(CCCCN)NC(=S)Nc2ccccc2O)C(C)C)C(=O)OCc2c1cc1n(c2=O)Cc2cc3ccccc3nc2-1 (stereo partly drawn) [4.13), 20-O-[N^α-(2-Hydroxy-phenylamino-thiocarbonyl)-lysyl-valyl]-camptothecin, hydrochloride] | 7.22 | 7.40 | 6.70 |
| CCC1(OC(=O)C(NC(=O)C(CCCCNC(=S)Nc2ccc(O)cc2)NC(=S)Nc2ccc(O)cc2)C(C)C)C(=O)OCc2c1cc1n(c2=O)Cc2cc3ccccc3nc2-1 (stereo not drawn) [4.21), 20-O-{[N^α-N^ε-bis-(4-Hydroxy-phenylamino-thiocarbonyl)]-lysyl-valyl}-camptothecin, hydrochloride] | 6.15 | 6.52 | 5.52 |
| CC(NC(=O)C(CCC(=O)O)NC(=S)Nc1ccc(O)cc1)C(=O)Nc1ccc2nc3n(c(=O)c2c1)Cc1ccccc1-3 [1.6), N-[N-(4-Hydroxy-phenylamino-thiocarbonyl)-glutamyl-D-alanyl]-batracylin] | 3.26 | 3.10 | – |
